# Experimental data published in publication PMC11087554, “The STING agonist IMSA101 enhances chimeric antigen receptor T cell function by inducing IL-18 secretion” (Nature Communications, 2024).
# pEC50: −log10 of the molar value.
# Target: T1, STING (stimulator of interferon genes) (Homo sapiens, UniProt Q86WV6)
# T1 construct: gene STING1; endogenous STING in THP1-ISG-luc cells
# Experiment: THP1-ISG-luc ISRE reporter assay with PFO permeabilisation; IFN-beta response lost in STING-KO THP1 cells
# Type: cell-based
# T1 sequence (Q86WV6 whole entry, looked up): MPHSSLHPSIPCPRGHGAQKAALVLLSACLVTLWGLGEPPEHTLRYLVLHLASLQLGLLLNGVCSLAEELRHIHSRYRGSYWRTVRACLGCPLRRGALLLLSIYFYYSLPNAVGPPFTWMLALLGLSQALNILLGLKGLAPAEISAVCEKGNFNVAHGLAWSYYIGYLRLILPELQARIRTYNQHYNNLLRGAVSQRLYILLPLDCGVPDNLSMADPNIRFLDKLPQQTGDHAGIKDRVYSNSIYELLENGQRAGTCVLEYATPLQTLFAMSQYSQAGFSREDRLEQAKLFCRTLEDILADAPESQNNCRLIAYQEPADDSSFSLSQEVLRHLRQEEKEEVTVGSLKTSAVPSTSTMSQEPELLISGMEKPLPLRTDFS
substance,measurement,value
IMSA101,pEC50,7.52 to 7.70
